The source made the active and inactive calls. How the calls were made is not given here.
Test system: CCRIS mutagenicity, Ames/micronucleus/aberration tests
Experiment: CCRIS mutagenicity studies
[1] = Test System: AMES SALMONELLA TYPHIMURIUM, Strain/Indicator: TA98, Metabolic Activation: NONE, Method: PREINCUBATION
[2] = Test System: AMES SALMONELLA TYPHIMURIUM, Strain/Indicator: TA98, Metabolic Activation: RAT, LIVER, S-9, AROCLOR 1254, Method: PREINCUBATION
[3] = Test System: AMES SALMONELLA TYPHIMURIUM, Strain/Indicator: TA98, Metabolic Activation: RAT, LIVER, S-9, AROCLOR 1254, Method: STANDARD PLATE
[4] = Test System: AMES SALMONELLA TYPHIMURIUM, Strain/Indicator: TA100, Metabolic Activation: RAT, LIVER, S-9, AROCLOR 1254, Method: STANDARD PLATE

SMILES: CN1CCCC1=O
- mutagenic call (Test System: AMES SALMONELLA TYPHIMURIUM, Strain/Indicator: TA97, Metabolic Activation: NONE, Method: STANDARD PLATE): inactive; negative
- mutagenic call (Test System: AMES SALMONELLA TYPHIMURIUM, Strain/Indicator: TA97, Metabolic Activation: RAT, LIVER, S-9, AROCLOR 1254, Method: STANDARD PLATE): inactive; negative
- mutagenic call [1]: inactive; negative
- mutagenic call (Test System: AMES SALMONELLA TYPHIMURIUM, Strain/Indicator: TA98, Metabolic Activation: NONE, Method: STANDARD PLATE): inactive; negative
- mutagenic call [2]: inactive; negative
- mutagenic call [3]: inactive; negative
- mutagenic call (Test System: AMES SALMONELLA TYPHIMURIUM, Strain/Indicator: TA100, Metabolic Activation: NONE, Method: STANDARD PLATE): inactive; negative
- mutagenic call [4]: inactive; negative
- mutagenic call (Test System: AMES SALMONELLA TYPHIMURIUM, Strain/Indicator: TA102, Metabolic Activation: NONE, Method: STANDARD PLATE): inactive; negative
- mutagenic call (Test System: AMES SALMONELLA TYPHIMURIUM, Strain/Indicator: TA102, Metabolic Activation: RAT, LIVER, S-9, AROCLOR 1254, Method: STANDARD PLATE): inactive; negative
- mutagenic call (Test System: AMES SALMONELLA TYPHIMURIUM, Strain/Indicator: TA104, Metabolic Activation: NONE, Method: PREINCUBATION): inactive; negative
- mutagenic call (Test System: AMES SALMONELLA TYPHIMURIUM, Strain/Indicator: TA104, Metabolic Activation: NONE, Method: STANDARD PLATE): inactive; negative
- mutagenic call (Test System: AMES SALMONELLA TYPHIMURIUM, Strain/Indicator: TA104, Metabolic Activation: RAT, LIVER, S-9, AROCLOR 1254, Method: PREINCUBATION): inactive; negative
- mutagenic call (Test System: AMES SALMONELLA TYPHIMURIUM, Strain/Indicator: TA104, Metabolic Activation: RAT, LIVER, S-9, AROCLOR 1254, Method: STANDARD PLATE): inactive; negative
- mutagenic call (Test System: AMES SALMONELLA TYPHIMURIUM, Strain/Indicator: TA2638, Metabolic Activation: NONE, Method: STANDARD PLATE): inactive; negative
- mutagenic call (Test System: AMES SALMONELLA TYPHIMURIUM, Strain/Indicator: TA2638, Metabolic Activation: RAT, LIVER, S-9, AROCLOR 1254, Method: STANDARD PLATE): inactive; negative
- mutagenic call (Test System: AMES SALMONELLA TYPHIMURIUM, Strain/Indicator: UTH8413, Metabolic Activation: NONE, Method: STANDARD PLATE): inactive; negative
- mutagenic call (Test System: AMES SALMONELLA TYPHIMURIUM, Strain/Indicator: UTH8413, Metabolic Activation: RAT, LIVER, S-9, AROCLOR 1254, Method: STANDARD PLATE): inactive; negative
- mutagenic call (Test System: AMES SALMONELLA TYPHIMURIUM, Strain/Indicator: UTH8414, Metabolic Activation: NONE, Method: STANDARD PLATE): inactive; negative
- mutagenic call (Test System: AMES SALMONELLA TYPHIMURIUM, Strain/Indicator: UTH8414, Metabolic Activation: RAT, LIVER, S-9, AROCLOR 1254, Method: STANDARD PLATE): inactive; negative

SMILES: Cc1ccc2c(c1)Cc1cc(C)ccc1-2
- mutagenic call [3]: inactive; negative
- mutagenic call [4]: inactive; negative

SMILES: O=Cc1cc(=O)[nH]c(=O)[nH]1
- mutagenic call (Test System: CHINESE HAMSTER V-79, Strain/Indicator: V-79 (HPRT)/6-THIOGUANINE, Metabolic Activation: NONE, Method: STANDARD PLATE): active; positive

SMILES: OCc1c[nH]c2ccccc12
- mutagenic call (Test System: Ames Salmonella typhimurium, Strain/Indicator: TA98, Metabolic Activation: None, Method: Plate incorporation): inactive; negative
- mutagenic call (Test System: Ames Salmonella typhimurium, Strain/Indicator: TA98, Metabolic Activation: None, Method: Preincubation): inactive; negative
- mutagenic call (Test System: Ames Salmonella typhimurium, Strain/Indicator: TA98, Metabolic Activation: Rat, Liver, S-9, Aroclor 1254, Method: Plate incorporation): inactive; negative
- mutagenic call (Test System: Ames Salmonella typhimurium, Strain/Indicator: TA98, Metabolic Activation: Rat, Liver, S-9, Aroclor 1254, Method: Preincubation): inactive; negative
- mutagenic call (Test System: MOUSE LYMPHOMA, Strain/Indicator: L5178Y (TK+/TK-), Metabolic Activation: NONE, Method: SUSPENSION/PLATE): active; positive. reevaluation of results: positive
- mutagenic call (Test System: MOUSE LYMPHOMA, Strain/Indicator: L5178Y (TK+/TK-), Metabolic Activation: RAT, LIVER, S-9, AROCLOR 1254, Method: SUSPENSION/PLATE): active; positive. reevaluation of results: positive

SMILES: Cc1cc(-c2ccc(N=Nc3c(N)c(C)cc(S(=O)(=O)O)c3N)c(C)c2)ccc1N=Nc1ccc(O)c(C(=O)O)c1
- mutagenic call (Test System: AMES SALMONELLA TYPHIMURIUM, Strain/Indicator: TA1538, Metabolic Activation: RAT, LIVER, S-9, AROCLOR 1254, Method: STANDARD PLATE): active; positive

SMILES: c1ccc2c(c1)ccc1cc3ccc4ccccc4c3nc12
- mutagenic call (Test System: AMES SALMONELLA TYPHIMURIUM, Strain/Indicator: TA100, Metabolic Activation: RAT, LIVER, S-9, PHENOBARBITAL AND 5,6-BENZOFLAVONE, Method: STANDARD PLATE): active; positive

SMILES: C=C(C=O)C[C@@H]1C[C@H](O)[C@@H]2O[C@@H]3C[C@@H]4O[C@@H]5/C=C\C[C@@H]6O[C@H]7[C@H](C/C=C\C[C@H]6O[C@H]5CCC[C@H]4O[C@H]3C[C@H]2O1)O[C@@H]1C[C@@H]2O[C@@H]3CC(=O)O[C@H]3C[C@@H](C)C[C@@]2(C)O[C@H]1C[C@@H]7C
- mutagenic call (End Point: In vitro chromosomal aberrations, Test System: Chinese hamster ovary (CHO-K1-BH4) cells, Metabolic Activation: None): active; positive (structural changes)

SMILES: CC(C)=CCC[C@](C)(O)[C@@H]1CC=C(C)CC1
- mutagenic call (End Point: AMES SALMONELLA TYPHIMURIUM, Test System: TA97A, Metabolic Activation: NONE, Method: STANDARD PLATE): inactive; negative
- mutagenic call (End Point: AMES SALMONELLA TYPHIMURIUM, Test System: TA97A, Metabolic Activation: RAT, LIVER, S-9, AROCLOR 1254, Method: STANDARD PLATE): inactive; negative
- mutagenic call (End Point: AMES SALMONELLA TYPHIMURIUM, Test System: TA98, Metabolic Activation: NONE, Method: STANDARD PLATE): inactive; negative
- mutagenic call (End Point: AMES SALMONELLA TYPHIMURIUM, Test System: TA98, Metabolic Activation: RAT, LIVER, S-9, AROCLOR 1254, Method: STANDARD PLATE): inactive; negative
- mutagenic call (End Point: AMES SALMONELLA TYPHIMURIUM, Test System: TA100, Metabolic Activation: NONE, Method: STANDARD PLATE): inactive; negative
- mutagenic call (End Point: AMES SALMONELLA TYPHIMURIUM, Test System: TA100, Metabolic Activation: RAT, LIVER, S-9, AROCLOR 1254, Method: STANDARD PLATE): inactive; negative
- mutagenic call (End Point: AMES SALMONELLA TYPHIMURIUM, Test System: TA1535, Metabolic Activation: NONE, Method: STANDARD PLATE): inactive; negative
- mutagenic call (End Point: AMES SALMONELLA TYPHIMURIUM, Test System: TA1535, Metabolic Activation: RAT, LIVER, S-9, AROCLOR 1254, Method: STANDARD PLATE): inactive; negative

SMILES: CCOCc1c(O)cc2c(c1O)C(=O)c1ccccc1C2=O
- mutagenic call (Test System: AMES SALMONELLA TYPHIMURIUM, Strain/Indicator: TA97, Metabolic Activation: NONE, Method: PREINCUBATION): inactive; negative
- mutagenic call (Test System: AMES SALMONELLA TYPHIMURIUM, Strain/Indicator: TA97, Metabolic Activation: RAT, LIVER, S-9, AROCLOR 1254, Method: PREINCUBATION): active; positive
- mutagenic call [1]: active; positive
- mutagenic call [2]: active; positive
- mutagenic call (Test System: AMES SALMONELLA TYPHIMURIUM, Strain/Indicator: TA98, Metabolic Activation: RAT, LIVER, S-9, PCB, Method: PREINCUBATION): active; positive
- mutagenic call (Test System: AMES SALMONELLA TYPHIMURIUM, Strain/Indicator: TA100, Metabolic Activation: NONE, Method: PREINCUBATION): active; positive
- mutagenic call (Test System: AMES SALMONELLA TYPHIMURIUM, Strain/Indicator: TA100, Metabolic Activation: RAT, LIVER, S-9, AROCLOR 1254, Method: PREINCUBATION): active; positive
- mutagenic call (Test System: AMES SALMONELLA TYPHIMURIUM, Strain/Indicator: TA100, Metabolic Activation: RAT, LIVER, S-9, PCB, Method: PREINCUBATION): active; positive
- mutagenic call (Test System: AMES SALMONELLA TYPHIMURIUM, Strain/Indicator: TA102, Metabolic Activation: NONE, Method: PREINCUBATION): active; positive
- mutagenic call (Test System: AMES SALMONELLA TYPHIMURIUM, Strain/Indicator: TA102, Metabolic Activation: RAT, LIVER, S-9, Method: PREINCUBATION): active; positive
- mutagenic call (Test System: AMES SALMONELLA TYPHIMURIUM, Strain/Indicator: TA1537, Metabolic Activation: NONE, Method: PREINCUBATION): active; positive
- mutagenic call (Test System: AMES SALMONELLA TYPHIMURIUM, Strain/Indicator: TA1537, Metabolic Activation: RAT, LIVER, S-9, AROCLOR 1254, Method: PREINCUBATION): active; positive
- mutagenic call (Test System: AMES SALMONELLA TYPHIMURIUM, Strain/Indicator: TA1537, Metabolic Activation: RAT, LIVER, S-9, Method: PREINCUBATION): active; positive
- mutagenic call (Test System: CHINESE HAMSTER V-79, Strain/Indicator: V-79/8-AZAGUANINE, Metabolic Activation: NONE, Method: STANDARD PLATE): inactive; negative
- mutagenic call (Test System: CHINESE HAMSTER V-79, Strain/Indicator: V-79/8-AZAGUANINE, Metabolic Activation: PRIMARY RAT HEPATOCYTES, Method: STANDARD PLATE): active; positive

Reference: PubChem BioAssay AID1259407 (Chemical Carcinogenesis Research Information System (CCRIS), 2018)
